Source: ChEMBL document CHEMBL5385976, “Recognition of arylmethylidene derivatives of imidazothiazolotriazinones as novel tubulin polymerization inhibitors” (RSC Med Chem, 2024)
The source made the active and inactive calls. The rule behind the calls is not given here.

Experiments:
Tubulin (Homo sapiens) [1] = target: T1, Tubulin (Homo sapiens) (UniProt P68371+Q9H4B7+P0DPH7+P68366+Q13509+Q71U36+P04350+Q3ZCM7+P07437+P68363+Q9BQE3+Q6PEY2+Q13885+Q9BVA1+Q9BUF5); experiment: Inhibition of tubulin polymerization in human HT-29 cells upto 100 uM incubated for 48 hrs by Western blot analysis; format: cell-based
[2] = Inhibition of cell growth in human HaCaT cells incubated for 72 hrs by MTT assay; format: toxicity, cell-based
HT-29 [3] = experiment: Inhibition of cell growth in human HT-29 cells incubated for 72 hrs by MTT assay; format: functional, cell-based; conditions: HT-29, 72 h
[4] = test system: Panel NCI-60 (60 carcinoma cell lines); experiment: Antiproliferative activity against human panel NCI-60 (60 carcinoma cell lines) incubated for 48 hrs by SRB assay; format: functional
Tubulin (Homo sapiens) [5] = target: T1, Tubulin (Homo sapiens); experiment: Inhibition of tubulin polymerization in human K562 cells at 0.5 uM incubated for 24 hrs by confocal microscopy; format: cell-based
K562 [6] = experiment: Antiproliferative activity against human K562 cells assessed as mean cell growth at 10 uM incubated for 48 hrs by SRB assay relative to control; format: functional
COLO357 = experiment: Inhibition of cell growth in human COLO357 cells incubated for 72 hrs by MTT assay; format: functional, cell-based
HT-29 [7] = experiment: Downregulation of beta-actin level in human HT-29 cells upto 100 uM incubated for 48 hrs by Western blot analysis; format: functional, cell-based
OVCAR-3 = experiment: Anticancer activity against human OVCAR-3 cells assessed as cell growth at 10 umol/L incubated for 48 hrs by SRB assay relative to control; format: functional; conditions: OVCAR-3, 48 h, dose 10 µmol/L, read-out: Activity
T47D = experiment: Anticancer activity against human T47D cells assessed as cell growth at 10 umol/L incubated for 48 hrs by SRB assay relative to control; format: functional; conditions: dose 10 µmol/L, read-out: Activity
SK-MEL-28 = experiment: Anticancer activity against human SK-MEL-28 cells assessed as cell growth at 10 umol/L incubated for 48 hrs by SRB assay relative to control; format: functional; conditions: SK-MEL-28, 48 h, dose 10 µmol/L, read-out: Activity
[8] = test system: Panel NCI-60 (60 carcinoma cell lines); experiment: Antiproliferative activity against human panel NCI-60 (60 carcinoma cell lines) assessed as total inhibition of cell growth incubated for 48 hrs by SRB assay; format: functional
Panc02 = experiment: Inhibition of cell growth in mouse Panc02 cells incubated for 72 hrs by MTT assay; format: functional
K562 [9] = experiment: Inhibition of cell growth in human K562 cells incubated for 72 hrs by MTT assay; format: functional, cell-based
OVCAR-8 = experiment: Anticancer activity against human OVCAR-8 cells assessed as cell growth at 10 umol/L incubated for 48 hrs by SRB assay relative to control; format: functional; conditions: OVCAR-8, 48 h, dose 10 µmol/L, read-out: Activity
NCI-H226 = experiment: Antiproliferative activity against human NCI-H226 cells assessed as mean cell growth at 10 uM incubated for 48 hrs by SRB assay relative to control; format: functional

Structure (SMILES)	inhibition (Tubulin (Homo sapiens) [1])	IC50 at 72 h [2]	IC50 (HT-29 [3])	GI50 [4]	LC50 [4]	inhibition (Tubulin (Homo sapiens) [5])	Activity (K562 [6])	IC50 (COLO357; COLO357, 72 h)	GI50 (COLO357; COLO357, time 72 hrs)	Activity (HT-29 [7])	growth at 10 µM (OVCAR-3)	growth at 10 µM (T47D)	growth at 10 µM (SK-MEL-28)	GI [8]	GI50 (Panc02)	IC50 (K562 [9]; K562, 72 h)	GI50 (K562 [9]; K562, time 72 hrs)	growth at 10 µM (OVCAR-8)	Activity (NCI-H226)
CCN1C(=O)N(CC)C2C1NN=c1s/c(=C\c3ccc(Cl)cc3Cl)c(=O)n12 (centres undefined)	Active	3.5 nM	5.5 nM	80 nM	> 96400 nM	Active	18%	6 nM	16 nM	Active	13.4%	58.8%	45.7%	>66.8 µM	16 nM	2 nM	0.64 nM	10.8%	
COc1cc2c(c(OC)c1OC)-c1ccc(OC)c(=O)cc1[C@@H](NC(C)=O)CC2 [COLCHICINE]																			8%
